# Test results taken from patent US10322136B2, “Composition for inhibiting growth or proliferation of chronic myelogenous leukemia cancer stem cells, and screening method therefor” (HIROSHIMA UNIVERSITY, priority 2015, dated 2019).
# What was measured:
# [1] = system: LT-CML cancer stem cells; test: Colony-forming assay, LT-CML cancer stem cells on OP-9 stromal cells; assay type: cell-based, mouse; conditions: 5 μM, 5 days, hypoxic (3% O2)
# Description: LT-CML stem cells or LT-normal HSCs (1×10^3/plate) were co-cultured on OP-9 stromal cells for 5 days in the presence of either vehicle (control) or a dipeptide transporter inhibitor cefadroxil (5 μM). Cells were harvested, washed with PBS, and plated in semi-solid methylcellulose medium containing SCF, IL-3, IL-6 and erythropoietin (Methocult GF M3434; Stem Cell Technologies). After growth for 7 days in a humidified atmosphere containing 5% CO2 at 37° C., colony numbers were counted under a light microscope. For combination treatments of dipeptide transporter inhibitor+tyrosine kinase inhibitor (TKI), LT-CML cancer stem cells (3×10^3) were plated on OP-9 stromal cells in the presence of cefadroxil (5 μM). After 24 h in culture, the cells received additional DMSO or 1 μM IM (Axon Medchem) and were incubated for another 4 days (total 5 days). Treated cells were washed with PBS, transferred to a semi-solid medium, and colony formation after 7 days was assessed as described above.
# [2] = system: CML-KLS+ cells; test: Serial transplantation of CML stem cells; assay type: in vivo, mouse
# Description: To evaluate the retention of the disease-initiating capacity by CML stem cells after treatment of mice with cefadroxil […] and/or IM in vivo, the number of GFP/BCR-ABL1+CMLKLS^+ cells in treated BCR-ABL1 CML-affected mice was determined, and subsequent secondary transplantation of the cells was performed. Briefly, CML-affected mice received by oral gavage for 30 days post BM transplantation as described above. The number of GFP/BCR-ABL1+CML-KLS+ cells among total GFP/BCR-ABL1+CML cells isolated from BM MNCs acquired from the two hindlimbs of treated CML-affected mice was assessed by flow cytometry. Freshly purified GFP/BCR-ABL1^+CML-KLS^+ cells (3×10^4) were then serially transplanted into a second set of lethally irradiated congenic recipient mice along with 5×10^5 normal BM MNCs derived from C57BL/6 mice. Mouse survival and disease recurrence were monitored for 90 days.
# [3] = system: Raptor-Ser792; test: Raptor-Ser792 phosphorylation in LT-CML cancer stem cells; assay type: cell-based, mouse; conditions: LT-CML cancer stem cells in vitro
# [4] = system: Raptor-Ser863; test: Duolink in situ PLA, Raptor-Ser863 phosphorylation in LT-CML cancer stem cells; assay type: cell-based, mouse; conditions: 30 min; GlySar or cefadroxil 5 μM; rapamycin 100 nM
# Description: To examine phosphorylation of Smad2, Smad3, p38MAPK, AMPK, and S6 ribosomal protein, and Foxo3a-Smad2 and Foxo3a-Smad3 interactions, Duolink® in situ PLA assay (Olink Bioscience) was used. LT-CML stem cells, ST-CML stem cells, CD48^+, MPP, and KLS^− CML cells that were freshly isolated from CML-affected mice, and LT-normal HSCs that were freshly isolated from healthy control littermates, were immediately fixed with 4% paraformaldehyde for 30 min.
# For in vitro inhibitor experiments, LT-CML stem cells were incubated in 3% O2 at 37° C. for 30 min with vehicle (control; artificial gastric fluid solution (900 ml ddH2O containing 2.0 g of NaCl, 7 ml of conc. HCl and 3.2 g of pepsin)), 5 μM Ly364947 (TGF-β type I receptor kinase Alk5 inhibitor; Merck), 5 μM SB203580 (p38MAPK inhibitor; LC Laboratories), 5 μM GlySar (dipeptide transporter inhibitor; Sigma-Aldrich), 5 μM cefadroxil (dipeptide transporter inhibitor; Sigma-Aldrich), or 100 nM rapamycin (mTORC1 inhibitor; Cell Signaling Technologies). […]
# The proximate binding of these antibodies was then detected using Duolink® in situ PLA system which employs a set of two secondary antibodies in which one is conjugated to a minus strand PLA probe and the other is conjugated to a plus strand PLA probe. […] The number of fluorescent foci per single cell was quantified using Duolink®Image Tool software (Olink Bioscience).
# [5] = system: human CD34+CD38-Lin- CML-LICs; test: Colony-forming capacity of human CML leukemia-initiating cells; assay type: cell-based; conditions: 5 μM cefadroxil, 5 days, three patients
# Excerpt: Viable BM MNCs from three human patients with chronic phase CML were purchased from All cells (#06-255, #06-620, and #147742, Alameda, Calif., USA). Documents confirming the informed consent of the patient are available in http://www.veritastk.co.jp/attached/3978/AllCells_BM_Informed_Consent_Form.pdf. These cells were stained with anti-CD34(8G12), anti-CD38(HIT2), anti-CD3(SK7), anti-CD16(3G8), anti-CD19(SJ25C1), anti-CD20(L27), anti-CD14(MpP9), and anti-CD56(NCAM16.2) antibodies (all purchased from BD Biosciences). A mixture of mAbs recognizing CD3, CD16, CD19, CD20, CD14 and CD56 was used to identify Lin^− cells, and CD34^+CD38^−Lin^− cells were purified. To determine the effects of treatment with cefadroxil (5 μM) alone, or with a combination of cefadroxil+IM (1 μM; Axon Medchem) or dasatinib (500 nM; LC laboratories), CD34^+CD38^−Lin^− cells were cultured on OP-9 stromal cells under hypoxic (3% O2) conditions. After harvesting and washing with PBS, the colony-forming ability of the most primitive human CML leukemia-initiating cells (LICs) was evaluated by culture in semi-solid methylcellulose medium containing SCF, GM-CSF, IL-3, IL-6, G-CSF, and erythropoietin (Methocult GF+ H4435; Stem Cell Technologies). After growth for 7 days at 37° C. under hypoxic (3% O2) conditions, colony numbers were counted under a light microscope.
smiles,measurement,setting,value
CC1=C(C(=O)O)N2C(=O)[C@@H](NC(=O)[C@H](N)c3ccc(O)cc3)[C@H]2SC1 [cefadroxil],colony-forming capacity of LT-CML cancer stem cells,[1],significantly decreased
same,ability of CML-KLS+ cells from treated mice to drive BCR-ABL1+ disease in new recipients,"[2]; 3x10^4 cells per recipient, donors treated with cefadroxil",completely lost their ability
same,survival of new recipient mice,[2]; recipients of CML-KLS+ cells from cefadroxil-treated mice,over 90 days
same,Raptor-Ser792 phosphorylation,[3],did not promote
same,phosphorylation of Raptor-Ser863,[4],decreased phosphorylation
same,colony-forming capacity of human CML-LIC samples,[5],suppressed
